According to patent publication US20260256926A1, “BIFACIAL PEPTIDE NUCLEIC ACID PROBES AND METHODS OF USING THEREOF” (Ohio State Innovation Foundation, priority 2022, published 2026):

Assays:
[1] = test system: duplex nucleic acid substrates bearing single abasic, single NCP, and tandem NCP sites; test: Fluorogenic probe library screen, overall; type: binding; conditions: 2 μM probe, 2 μM duplex
Experimental: (§1) Fluorescence Measurements. Samples for screening were prepared as solutions with 50 mM HEPES (pH 7.5), 100 mM NaCl, 2 μM dsDNA/dsRNA, 2 μM probe (4 μM probe with tandem mismatch). Prior to use, nucleic acids were annealed (95° C./5 min, slow cool to RT over 2 h) to pre-form the duplex. Prepared samples were incubated at room temperature for 30 min before measuring fluorescence (Thermo Fisher Nanodrop 3300, excitation/emission=470/522 nm). For each measurement, 2 μl of sample was applied to the center of the nanodrop probe. All fluorescence values are the average of triplicate measurements, starting from fresh sample preparation. Error bars indicate standard deviation. The relative intensity (turn-on) was calculated using the equation below.

[2] = test system: tandem NCP sites (2×2 internal bulges) in dsRNA; test: Tandem NCP RNA library screen; type: binding; conditions: 4 μM probe, 2 μM RNA duplex
Experimental: as §1

[3] = cited from earlier work
[4] = parent dye free in solution; cited from earlier work

SMILES: Oc1nc(O)nc(O)n1 [CA]
- binding in the abasic or single NCP screens [1]: did not show any binding
- targeting of AG/CU internal bulge [2]: could be targeted

SMILES: Nc1nc(=O)[nH]c(=O)[nH]1 [ammelide]
- pKa [3]: ~ 6.9

SMILES: O=c1[nH]c(=O)[nH]c(=O)[nH]1 [cyanuric acid]
- pKa [3]: ~ 6.9

SMILES: CN1C(=Cc2cc[n+](C)c3ccccc23)Sc2ccccc21 [thiazole orange]
- quantum yield in solution [4]: ~ 10^−4
